The values that follow come from patent US9029389B2 (Institut Pasteur Korea, priority 2011, dated 2015).

The structures appear in SMILES notation. Some results are limits rather than exact numbers.

The target of the test is T1, Human 5-lipoxygenase (Homo sapiens, UniProt P09917).
T1 construct: purchased Cayman 60402; host or cells: insect cells
T1 sequence (P09917 1-674): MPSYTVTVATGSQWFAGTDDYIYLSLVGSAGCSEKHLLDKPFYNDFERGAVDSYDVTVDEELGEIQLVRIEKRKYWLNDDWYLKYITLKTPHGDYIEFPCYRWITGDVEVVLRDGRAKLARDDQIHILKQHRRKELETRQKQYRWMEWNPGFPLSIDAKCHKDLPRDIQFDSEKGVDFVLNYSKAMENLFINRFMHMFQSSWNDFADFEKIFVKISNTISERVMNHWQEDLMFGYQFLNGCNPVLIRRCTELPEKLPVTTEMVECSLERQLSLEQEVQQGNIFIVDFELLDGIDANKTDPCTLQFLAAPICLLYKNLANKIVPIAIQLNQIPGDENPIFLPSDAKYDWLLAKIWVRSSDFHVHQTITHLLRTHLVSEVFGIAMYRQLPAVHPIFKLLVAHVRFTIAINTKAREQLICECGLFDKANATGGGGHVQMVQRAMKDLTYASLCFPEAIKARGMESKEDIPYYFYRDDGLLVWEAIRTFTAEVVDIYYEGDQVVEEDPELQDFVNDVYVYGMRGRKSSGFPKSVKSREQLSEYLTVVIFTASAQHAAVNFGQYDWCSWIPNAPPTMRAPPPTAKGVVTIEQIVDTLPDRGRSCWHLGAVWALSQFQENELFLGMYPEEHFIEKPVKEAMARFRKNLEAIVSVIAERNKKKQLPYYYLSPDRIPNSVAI
Put plainly: Activity of compounds against 5-LO enzyme (LTB4 measurement and/or fluorescence method). The format is biochemical. The following applies: for inhibition at 10 µM: 5-LO, single concentration of 10 uM in duplicate; for IC50: 6 or 11 point dose response in duplicate. As to the method: The activity of compounds against 5-LO were determined by measuring LTB4 (leukotriene B4) levels and/or by a fluorescence method. Both approaches are outlined in more detail below;
Human 5-lipoxygenase (Cayman, Cat#60402) produced in insect cells was pre-incubated with compound for 15 min at RT in incubation buffer (50 mM Tris-Cl, pH 7.4, 2 mM CaCl2, 0.1 mM ATP, 1% DMSO). The enzymatic reaction was started by adding arachidonic acid to a final concentration of 3 uM. After 5 min of incubation at 37° C., the reaction was stopped by heatinactivation at 80° C. for 5 min. LTB4 levels were quantified by using LTB4 EIA kit (Cayman, Cat#520111) as instructed and/or LTB4 levelswere measured with LC/MS/MS using Quattro Premier™ XE tandem quadrupole mass spectrometer equipped with Acquity UPLC system (Waters, Milford, Mass.). The method was slightly modified as reported previously (Zweifel et al., 2008, Willey et al., 2008, Chappell et al, 2011). Briefly, chromatographic separation was carried out with Acquity UPLC BEH Shield RP18 Column (2.1 mm×50 mm, 1.7 μm particle size, Waters, Milford, Mass.). Sample injection volume was 10 μl, the column temperature was 35° C., the mobile phase A consisted of water with 0.1% formic acid and the mobile phase B consisted of acetonitrile with 0.1% formic acid. Flow rate was 0.4 mL/min and the gradient condition was as follows.
Relative quantification of LTB4 and LTB4-d4 (Internal Standard) was done using multi reaction monitoring (MRM) of the transitions of m/z 335→195 for LTB4, 339→197 for LTB4-d4 in electrospray ionization (ESI) negative mode. Desolvation temperature was 400° C., source temperature was 130° C. Capillary voltage, cone voltage, and collision voltage were 3.5 kV, 30V, and 20 eV, respectively. Nitrogen was used for desolvation (750 L/h) and cone (50 L/h) gas. Argon was used for collision gas (0.22 ml/min). The dwell time was 10 ms.
Besides the two methods quantifying LTB4 level, a fluorescence assay measuring 5-HpETE was introduced for high-throughput screening in a 384 well microplate format (Pufahl et al., 2007). For nonspecific ester cleavage of the acetate groups in H2DCFDA, the insect cell lysate expressing human 5-LO (Cayman Cat#60402) was incubated with H2DCFDA (50 mM Tris-Cl, pH 7.5, 2 mM CaCl2, 20 uM H2DCFDA, 500 mU 5-LO per reaction) for 5 minutes. Compound and enzyme mixture were pre-incubated for 5 minutes, and the enzymatic reaction was initiated by addition of ATP and arachidonic acid to a final concentration of 100 uM and 3 uM, respectively. After 5 minutes of incubation, the fluorescence was measured using Spectramax M5 (Molecular Device, Ex/Em=485 nm/530 nm). All steps were carried out at room temperature.
A total of 378 compounds were initially tested at a single concentration of 10 uM in duplicate with the results summarized in Table 1. From these 378 compounds, 53 compounds plus an additional 25 were selected for confirmation of activity by 6 or 11 point dose response in duplicate with the corresponding IC50 values outlined in Table 2.

The inhibition is the drop in the measured response relative to a control, in per cent. Take `CCc1nc2ccc([N+](=O)[O-])cn2c1C(=O)NCc1ccc(OC(F)(F)F)cc1` [compound 69, 2-Ethyl-6-nitro-N-(4-(trifluoromethoxy)benzyl)imidazo[1,2-a]pyridine-3-carboxamide]: the inhibition at 10 µM is 40 to 69%.

Compound `CCc1nc2cnccn2c1C(=O)NCc1ccc(-c2ccc(Cl)cc2)cc1` [compound 71, N-((4′-Chlorobiphenyl-4-yl)methyl)-2-ethylimidazo[1,2-a]pyrazine-3-carboxamide] returned an inhibition at 10 µM of less than 40%.

As for `CCc1nc2ccc(Cl)cn2c1C(=O)NCc1ccc(-c2ccccc2Cl)cc1` [compound 72, 6-Chloro-N-((2′-chlorobiphenyl-4-yl)methyl)-2-ethylimidazo[1,2-a]pyridine-3-carboxamide], the inhibition at 10 µM was in the range of 40 to 69%.

Consider `CCc1nc2ccc(Cl)cn2c1C(=O)NCc1ccc(-c2ccc(Cl)cc2)cc1` [compound 73, 6-Chloro-N-((4′-chlorobiphenyl-4-yl)methyl)-2-ethylimidazo[1,2-a]pyridine-3-carboxamide], for which the inhibition at 10 µM is less than 40%.

For `CCc1nc2ccc(Cl)cn2c1C(=O)NCc1ccc(N2CCCCC2)cc1` [compound 74, 6-Chloro-2-ethyl-N-(4-(piperidin-1-yl)benzyl)imidazo[1,2-a]pyridine-3-carboxamide], the inhibition at 10 µM is less than 40%.

Usually IC50 stands for the point on the concentration scale where inhibition reaches its midpoint. Low readings indicate greater potency in that assay, high ones weaker potency in that assay. In turn, `CCc1nc2ccc(Cl)cn2c1C(=O)NCc1ccc(-c2ccccc2C)cc1` [compound 75, 6-Chloro-2-ethyl-N-((2′-methylbiphenyl-4-yl)methyl)imidazo[1,2-a]pyridine-3-carboxamide] yielded an inhibition at 10 µM of 40 to 69% and an IC50 of 1 to 20 µM.

In turn, `CCc1nc2ccc(Cl)cn2c1C(=O)NCc1ccc(-c2cccc(C)c2)cc1` [compound 76, 6-Chloro-2-ethyl-N-((3′-methylbiphenyl-4-yl)methyl)imidazo[1,2-a]pyridine-3-carboxamide] yielded an inhibition at 10 µM of 40 to 69%.

Turning to `CCc1nc2ccc(Cl)cn2c1C(=O)NCc1ccc(-c2ccc(C)cc2)cc1` [compound 77, 6-Chloro-2-ethyl-N-((4′-methylbiphenyl-4-yl)methyl)imidazo[1,2-a]pyridine-3-carboxamide], the inhibition at 10 µM was less than 40%.

As to `CCc1nc2ccc(Cl)cn2c1C(=O)NCc1ccc(Cl)cc1` [compound 78, 6-Chloro-N-(4-chlorobenzyl)-2-ethylimidazo[1,2-a]pyridine-3-carboxamide], the inhibition at 10 µM was less than 40%.

In turn, `CCc1nc2ccc(Cl)cn2c1C(=O)NCc1ccc2ccccc2c1` [compound 79, 6-Chloro-2-ethyl-N-(naphthalen-2-ylmethyl)imidazo[1,2-a]pyridine-3-carboxamide] gave an inhibition at 10 µM of less than 40%.

In turn, `O=C(NCc1ccc(-c2ccccc2)cc1)c1c(C(F)(F)F)nc2ccc(Cl)cn12` [compound 80, N-(Biphenyl-4-ylmethyl)-6-chloro-2-(trifluoromethyl)imidazo[1,2-a]pyridine-3-carboxamide] showed an inhibition at 10 µM of less than 40%.

As to `CC(C)(C)c1ccc(CNC(=O)c2c(C(F)(F)F)nc3ccc(Cl)cn23)cc1` [compound 81, N-(4-tert-Butylbenzyl)-6-chloro-2-(trifluoromethyl)imidazo[1,2-a]pyridine-3-carboxamide], the inhibition at 10 µM is less than 40%.

As for `CCc1nc2cc(Cl)ccn2c1C(=O)NCc1ccc(-c2ccccc2Cl)cc1` [compound 82, 7-Chloro-N-((2′-chlorobiphenyl-4-yl)methyl)-2-ethylimidazo[1,2-a]pyridine-3-carboxamide], the inhibition at 10 µM is 40 to 69%.

In turn, `CCc1nc2cc(Cl)ccn2c1C(=O)NCc1ccc(-c2ccc(Cl)cc2)cc1` [compound 83, 7-Chloro-N-((4′-chlorobiphenyl-4-yl)methyl)-2-ethyl-2-ethlimidazo[1,2-a]pyridine-3-carboxamide] yielded an inhibition at 10 µM of 40 to 69%.

Consider `CCc1nc2cc(Cl)ccn2c1C(=O)NCc1ccc(Cl)cc1` [compound 84, 7-Chloro-N-(4-chlorobenzyl)-2-ethylimidazo[1,2-a]pyridine-3-carboxamide], for which the inhibition at 10 µM lay within 40 to 69%.

Take `CCc1nc2cc(Cl)ccn2c1C(=O)NCc1ccc(-c2ccccc2C)cc1` [compound 85, 7-Chloro-2-ethyl-N-((2′-methylbiphenyl-4-yl)methyl)imidazo[1,2-a]pyridine-3-carboxamide]: the inhibition at 10 µM was more than 69%.

The compound `CCc1nc2cc(Cl)ccn2c1C(=O)NCc1ccc(-c2cccc(C)c2)cc1` [compound 86, 7-Chloro-2-ethyl-N-((3′-methylbiphenyl-4-yl)methyl)imidazo[1,2-a]pyridine-3-carboxamide] had an inhibition at 10 µM of more than 69% and a concentration for half-maximal inhibition (IC50) of 1 to 20 µM.

The compound `CCc1nc2cc(Cl)ccn2c1C(=O)NCc1ccc(-c2ccc(C)cc2)cc1` [compound 87, 7-Chloro-2-ethyl-N-((4′-methylbiphenyl-4-yl)methyl)imidazo[1,2-a]pyridine-3-carboxamide] yielded an inhibition at 10 µM of 40 to 69%.

Regarding `CCc1nc2cc(Cl)ccn2c1C(=O)NCc1ccc(O)cc1` [compound 88, 7-Chloro-2-ethyl-N-(4-hydroxybenzyl)imidazo[1,2-a]pyridine-3-carboxamide], the inhibition at 10 µM is less than 40%.

With `CCc1nc2cc(Cl)ccn2c1C(=O)NCc1ccc(N2CCCCC2)cc1` [compound 89, 7-Chloro-2-ethyl-N-(4-(piperidin-1-yl)benzyl)imidazo[1,2-a]pyridine-3-carboxamide], the inhibition at 10 µM is less than 40%.

With `CCc1nc2cc(Cl)ccn2c1C(=O)NCc1ccc2ccccc2c1` [compound 90, 7-Chloro-2-ethyl-N-(naphthalen-2-ylmethyl)imidazo[1,2-a]pyridine-3-carboxamide], the inhibition at 10 µM is 40 to 69%.

For `CCc1nc2cc(Cl)ccn2c1C(=O)NCc1ccc(-c2ccccc2)cc1` [compound 91, N-(Biphenyl-4-ylmethyl)-7-chloro-2-ethylimidazo[1,2-a]pyridine-3-carboxamide], the inhibition at 10 µM lay in the range of 40 to 69%.

Take `CCc1nc2cc(Cl)ccn2c1C(=O)NCc1ccc(C(C)(C)C)cc1` [compound 92, N-(4-tert-Butylbenzyl)-7-chloro-2-ethylimidazo[1,2-a]pyridine-3-carboxamide]: the inhibition at 10 µM is 40 to 69%.

For the compound `CCc1nc2cc(Cl)ccn2c1C(=O)NCc1ccc(Br)cc1` [compound 96, N-(4-Bromobenzyl)-7-chloro-2-ethylimidazo[1,2-a]pyridine-3-carboxamide], the inhibition at 10 µM lay in the range of 40 to 69%.

In turn, `CCc1nc2ccc(Cl)cn2c1C(=O)NCc1ccc(-c2ccc(C#N)cc2)cc1` [compound 97, 6-Chloro-N-((4′-cyanobiphenyl-4-yl)methyl)-2-ethylimidazo[1,2-a]pyridine-3-carboxamide] had an inhibition at 10 µM of less than 40%.

Compound `CCc1nc2ccc(Cl)cn2c1C(=O)NCc1ccc(-c2ccccc2C(F)(F)F)cc1` [compound 98, 6-Chloro-2-ethyl-N-((2′-(trifluoromethyl)biphenyl-4-yl)methyl)imidazo[1,2-a]pyridine-3-carboxamide] came in with an inhibition at 10 µM of 40 to 69%.
